Experimental data taken from article PMC8910629, “Design, Synthesis, and Anticancer Activity of a Selenium-Containing Galectin-3 and Galectin-9N Inhibitor” (International Journal of Molecular Sciences, 2022).
Values joined by “and” are separate entries in the source; they are usually repeats but may differ in a detail not shown here. Equal values may be shown once.

Key:
Gal-3 = conditions: cited from earlier work
Gal-1 = tested on: Gal-1; set-up: method as in PMID 27356186; conditions: cited from earlier work
Gal-9N^CRD = biological target: T1, Gal-9N^CRD (Homo sapiens, UniProt O00182); test: Isothermal titration calorimetry with Gal-9N CRD; format: binding; conditions: ITC
T1 construct: Gal-9N^CRD (amino acid residues 1–148) were cloned into the vector pETM11; polyHis-tag (TEV-cleavable, from pETM11) (N); made in house; host or cells: Escherichia coli BL21(DE3)GOLD
Protocol: (§1) The two proteins were cloned into pETM11 expression vector with a N-terminal polyHis-tag that is removable by TEV protease. The recombinant vectors pETM11-gal3^CRD and pETM11-gal9^CRD were used to transform E. coli BL21(DE3)GOLD cells and a single colony was grown overnight at 37 °C in 20 mL of LB medium. In total, 10 mL of the saturated cultures were transferred in 1 L of LB medium and grown at 37 °C to 0.8 OD 600 nm before induction with IPTG (0.5 mM). The inductions were kept for 16 and for 3 h at 22 °C in the expression of Gal-3^CRD and Gal-9N^CRD, respectively. The cells were harvested by centrifugation, re-suspended in 30 mL of lysis buffer (20 mM NaP, 500 mM NaCl, 10 mM imidazole pH 7.0 for Gal-3^CRD and pH 7.5 Gal-9N^CRD), and sonicated. […] Elution was carried out with 300 mM imidazole. Fractions containing the recombinant protein were, finally, applied onto a Superdex 75 10/300 column (GE Healthcare), connected to an AKTA system (GE Healthcare) pre-equilibrated in 20 mM NaP, 150 mM NaCl pH 7.0 for the purification of Gal-3^CRD and pH 7.5 for Gal-9N^CRD.
(§2) The purified proteins were used to perform interaction studies. […] Before all titrations, molecules were dissolved in 20 mM NaP, 150 mM NaCl pH 7.0 (when the molecules were assayed against Gal-3^CRD) or pH 7.5 (for Gal-9N^CRD). The sample cell was filled with 280 μL of Gal-3^CRD or Gal-9N^CRD. Molecules were injected in a volume of 0.2 μL for the first injection and 1 μL for the next 39 injections using an injection interval of 150 s. The control experiment, obtained by injection of the same amount of each molecule in buffer solution, was subtracted to correct for heat production upon molecules dilution. All data were analyzed and fitted using the Microcal Origin version 7.0 software package. Binding enthalpy, dissociation constants, and stoichiometry were determined by fitting the data using a one-set-of-site-binding model.

galectins = conditions: cited from earlier work
WM266 cells [1] = test: Transwell invasion assay; format: cell-based, human; conditions: 24 h, SeDG
Protocol: To analyze cell invasion, the surface of a filter membrane of a transwell insert was coated with extracellular matrix (ECL) (Millipore). Cells (5 × 10^4) suspended in 100 μL of serum-free medium were incubated with various concentrations of molecules and successively they were seeded onto the upper compartment of the transwell, whereas the lower chambers were filled with medium containing 10% FCS [65]. After 24 h, the cells were fixed with 10% formalin and stained with crystal violet. The remaining cells in the upper side of the transwell were removed and cells on the undersurface of the filters, the invaded cells, were visualized and counted from six randomly selected fields (10× magnification) under a phase-contrast microscope with AxioVision Rel.

tumor cell proliferation = tested on: tumor cell proliferation; set-up: method as in doi:10.1039/D1QO00045D; conditions: even at 2 mM concentration; cited from earlier work
WM266 cells [2] = test: Wound healing scratch assay; format: cell-based, human
Protocol: Analysis of cell migration in vitro has been carried out by using the wound healing scratch assay. WM266 cells were grown until they reached a confluent monolayer. After, they were linearly scratched with a pipette tip to generate a cell-free space. […] The area related to each incision was photographed at the time 0, 24, and 48 h using a phase contrast optical microscope with a 10× magnification (Zeiss). The distance between the edges of the incisions was measured by AxioVision Rel. 4.8 software and its mean value was determined as follows: wound closure (%) = 1 − (wound width tx/wound width t0) × 100. Bars depict mean ± SE of three independent experiments.

Gal-3^CRD = biological target: T2, Gal-3^CRD (Homo sapiens, UniProt P17931); test: Isothermal titration calorimetry with Gal-3 CRD; format: binding; conditions: ITC, 298 K
T2 construct: The genes encoding Gal-3^CRD (amino acid residues 112–250); polyHis-tag (TEV-cleavable, from pETM11) (N); made in house; host or cells: Escherichia coli BL21(DE3)GOLD
Protocol: as §1, §2

HuVec cells = test: Angiogenesis (capillary tube formation) assay; format: cell-based, human; conditions: SeDG at 2.5 mM
Protocol: Angiogenesis assay was performed by using “In Vitro Angiogenesis Assay Kit” (Merck, Burlington, MA, USA). Briefly, 100 μL of ECL were plated in a pre-cooled 96-well plate and incubated for 1 h at 37 °C. 10,000 cells (HuVec), suspended in EGM-2 [66], incubated with digalactosyl selenides, and seeded onto solidified matrix, according to manufacturer’s instructions. After 5–6 h of incubation at 37 °C, the tube formation was examined by means of a phase contrast optical microscope (Axiovert 200 Zeiss) at 10× magnification and the branch point number was calculated from 3 random fields per each treatment.

T1 sequence (O00182 1-148): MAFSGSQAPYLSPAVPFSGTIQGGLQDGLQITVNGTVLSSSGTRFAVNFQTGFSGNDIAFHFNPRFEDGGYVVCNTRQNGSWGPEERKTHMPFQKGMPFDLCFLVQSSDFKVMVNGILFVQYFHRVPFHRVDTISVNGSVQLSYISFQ

OC[C@H]1O[C@@H](S[C@@H]2O[C@H](CO)[C@H](O)[C@H](n3cc(-c4cccc(F)c4)nn3)[C@H]2O)[C@H](O)[C@@H](n2cc(-c3cccc(F)c3)nn2)[C@H]1O [TD139]
binding affinity (Gal-3): nanomolar affinity | binding affinity (Gal-1): nanomolar affinity

OC[C@H]1O[C@@H](O[C@H]2[C@H](O)[C@@H](O)C(O)O[C@@H]2CO)[C@H](O)[C@@H](O)[C@H]1O (mixture of isomers) [lactose]
binding of lactose (functional integrity of protein) (Gal-9N^CRD; Figure S2): able to bind lactose | binding affinities to galectins (galectins): high micromolar range

CC(=O)N[C@H]1C(O)O[C@H](CO)[C@@H](O[C@@H]2O[C@H](CO)[C@H](O)[C@H](O)[C@H]2O)[C@@H]1O (some centres unmarked) [LacNAc, N-acetyllactosamine]
binding affinities to galectins (galectins): high micromolar range

digalactosyl selenide [SeDG]
WM266 invasion through extracellular matrix (WM266 cells [1]): able to reduce the cells invasion but only at millimolar concentrations | effect on tumor cell proliferation (tumor cell proliferation): unable to affect tumor cell proliferation | n (stoichiometry) (Gal-9N^CRD; 298 K): 1.01 ± 0.05 | ΔH (Gal-9N^CRD; 298 K): -5.64 ± 0.36 kcal/mol | −TΔS (Gal-9N^CRD; 298 K): -1.46 kcal/mol | Kd (Gal-9N^CRD; 298 K, pH 7.5): ~20 µM and 22.4 µM | wound closure (WM266 cells [2]; WM266, SeDG at 1 and 2.5 mM, 24 and 48 h, vs untreated): decreased the wound closure at all used concentrations and time intervals | n (stoichiometry) (Gal-3^CRD): 1.09 ± 0.05 | ΔG (Gal-3^CRD): -6.31 kcal/mol | ΔH (Gal-3^CRD): -4.32 ± 0.27 kcal/mol | −TΔS (Gal-3^CRD): -1.99 kcal/mol | Kd (Gal-3^CRD; pH 7.0): 20.2 ± 2.2 µM | change of capillary tube formation (HuVec cells): non-statistically significant change

OC[C@H]1O[C@@H](S[C@@H]2O[C@H](CO)[C@H](O)[C@H](O)[C@H]2O)[C@H](O)[C@@H](O)[C@H]1O [TDG, β-D-galactopyranosyl-(1-1)-thio-β-D-galactopyranoside]
affinity to galectins (galectins): same affinity to galectins as lactose

B1: Gal-3^CRD: recombinant carbohydrate recognition domain of galectin 3 (residues 112–250), used as cell motility stimulator (protein, UniProt P17931 112-250, looked up, fragment)
chain: GPLIVPYNLPLPGGVVPRMLITILGTVKPNANRIALDFQRGNDVAFHFNPRFNENNRRVIVCNTKLDNNWGREERQSVFPFESGKPFKIQVLVEPDHFKVAVNDAHLLQYNHRVKKLNEISKLGISGDIDLTSASYTMI
modifications: carbohydrate recognition domain
notes: recombinant carbohydrate recognition domain of galectin 3 (residues 112–250), used as cell motility stimulator
cell migration (wound closure) vs control (WM266 cells [2]; WM266, 50 µM Gal-3^CRD): migrate more than in the control
